Test: Long-term stability in spiked pooled human plasma

SMILES | Long-term stability, 1 month, -20°C Accuracy [%] (validation standard 2xLLOV) | Long-term stability, 1 month, -80°C Accuracy [%] (validation standard 2xLLOV) | Long-term stability, 2 month, -20°C Accuracy [%] (validation standard 2xLLOV) | Long-term stability, 2 month, -80°C Accuracy [%] (validation standard 2xLLOV) | Long-term stability, 3 month, -20°C Accuracy [%] (validation standard 2xLLOV) | Long-term stability, 3 month, -80°C Accuracy [%] (validation standard 2xLLOV) | Long-term stability, 6 weeks, 4°C, without daylight Accuracy [%] (validation standard 2xLLOV) | Long-term stability, 1 month, -20°C Accuracy [%] (validation standard LLOV) | Long-term stability, 1 month, -80°C Accuracy [%] (validation standard LLOV) | Long-term stability, 2 month, -20°C Accuracy [%] (validation standard LLOV) | Long-term stability, 2 month, -80°C Accuracy [%] (validation standard LLOV) | Long-term stability, 3 month, -20°C Accuracy [%] (validation standard LLOV) | Long-term stability, 3 month, -80°C Accuracy [%] (validation standard LLOV) | Long-term stability, 6 weeks, 4°C, without daylight Accuracy [%] (validation standard LLOV) | Long-term stability, 1 month, -20°C Accuracy [%] (validation standard MOV) | Long-term stability, 1 month, -80°C Accuracy [%] (validation standard MOV) | Long-term stability, 2 month, -20°C Accuracy [%] (validation standard MOV) | Long-term stability, 2 month, -80°C Accuracy [%] (validation standard MOV) | Long-term stability, 3 month, -20°C Accuracy [%] (validation standard MOV) | Long-term stability, 3 month, -80°C Accuracy [%] (validation standard MOV) | further results
C[C@@H](Oc1cc(-c2cnn(C3CCNCC3)c2)cnc1N)c1c(Cl)ccc(F)c1Cl [Crizotinib] | 87.5 | 85.4 | 90.8 | 93.8 | 87.5 | 90.2 | 68.4 | 77.1 | 75.4 | 74.2 | 78.9 | 72.6 | 73.9 | 58.2 | 90.2 | 89.3 | 96.3 | 96.2 | 94.9 | 95.1 | Long-term stability, 6 weeks, 4°C, without daylight Accuracy [%] (validation standard MOV): 93.4%; Long-term stability, 1 month, -20°C Accuracy [%] (validation standard ULOV): 84.4%; Long-term stability, 1 month, -80°C Accuracy [%] (validation standard ULOV): 80.1%; Long-term stability, 2 month, -20°C Accuracy [%] (validation standard ULOV): 88.8%; Long-term stability, 2 month, -80°C Accuracy [%] (validation standard ULOV): 89.2%; Long-term stability, 3 month, -20°C Accuracy [%] (validation standard ULOV): 88.4%; Long-term stability, 3 month, -80°C Accuracy [%] (validation standard ULOV): 89.7%; Long-term stability, 6 weeks, 4°C, without daylight Accuracy [%] (validation standard ULOV): 83.8%
Cc1nc(Nc2ncc(C(=O)Nc3c(C)cccc3Cl)s2)cc(N2CCN(CCO)CC2)n1 [Dasatinib] | 99.2 | 92.5 | 98.2 | 96.3 | 102.0 | 99.1 | 72.6 | 108.6 | 89.0 | 82.2 | 84.9 | 81.3 | 85.5 | 79.4 | 97.7 | 91.3 | 92.8 | 92.3 | 102.9 | 101.1 | Long-term stability, 6 weeks, 4°C, without daylight Accuracy [%] (validation standard MOV): 102.3%; Long-term stability, 1 month, -20°C Accuracy [%] (validation standard ULOV): 97.7%; Long-term stability, 1 month, -80°C Accuracy [%] (validation standard ULOV): 93.4%; Long-term stability, 2 month, -20°C Accuracy [%] (validation standard ULOV): 95.6%; Long-term stability, 2 month, -80°C Accuracy [%] (validation standard ULOV): 100.4%; Long-term stability, 3 month, -20°C Accuracy [%] (validation standard ULOV): 104.5%; Long-term stability, 3 month, -80°C Accuracy [%] (validation standard ULOV): 105.8%; Long-term stability, 6 weeks, 4°C, without daylight Accuracy [%] (validation standard ULOV): 97.9%
CNC(=O)c1ccc(N2C(=S)N(c3ccc(C#N)c(C(F)(F)F)c3)C(=O)C2(C)C)cc1F [Enzalutamide] | 92.7 | 87.8 | 91.5 | 92.9 | 87.1 | 89.0 | 96.8 | 92.6 | 82.3 | 90.2 | 94.8 | 88.7 | 88.4 | 97.2 | 90.3 | 90.6 | 92.8 | 95.7 | 91.6 | 90.6 | Long-term stability, 6 weeks, 4°C, without daylight Accuracy [%] (validation standard MOV): 105.1%; Long-term stability, 1 month, -20°C Accuracy [%] (validation standard ULOV): 85.8%; Long-term stability, 1 month, -80°C Accuracy [%] (validation standard ULOV): 86.1%; Long-term stability, 2 month, -20°C Accuracy [%] (validation standard ULOV): 90.8%; Long-term stability, 2 month, -80°C Accuracy [%] (validation standard ULOV): 90.3%; Long-term stability, 3 month, -20°C Accuracy [%] (validation standard ULOV): 87.7%; Long-term stability, 3 month, -80°C Accuracy [%] (validation standard ULOV): 87.3%; Long-term stability, 6 weeks, 4°C, without daylight Accuracy [%] (validation standard ULOV): 95.0%
C#Cc1cccc(Nc2ncnc3cc(OCCOC)c(OCCOC)cc23)c1 [Erlotinib] | 102.3 | 98.1 | 106.4 | 105.9 | 106.0 | 105.8 | 95.9 | 113.5 | 108.0 | 113.2 | 114.8 | 111.5 | 114.1 | 107.0 | 97.4 | 97.0 | 102.2 | 101.3 | 102.2 | 102.8 | Long-term stability, 6 weeks, 4°C, without daylight Accuracy [%] (validation standard MOV): 111.0%; Long-term stability, 1 month, -20°C Accuracy [%] (validation standard ULOV): 99.6%; Long-term stability, 1 month, -80°C Accuracy [%] (validation standard ULOV): 97.8%; Long-term stability, 2 month, -80°C Accuracy [%] (validation standard ULOV): 104.4%; Long-term stability, 3 month, -20°C Accuracy [%] (validation standard ULOV): 101.8%; Long-term stability, 3 month, -80°C Accuracy [%] (validation standard ULOV): 104.4%; Long-term stability, 6 weeks, 4°C, without daylight Accuracy [%] (validation standard ULOV): 103.7%
COc1cc2ncnc(Nc3ccc(F)c(Cl)c3)c2cc1OCCCN1CCOCC1 [Gefitinib] | 99.2 | 94.2 | 105.6 | 108.5 | 103.9 | 101.3 | 89.3 | 95.8 | 89.0 | 101.3 | 102.7 | 100.2 | 99.5 | 78.5 | 100.7 | 99.3 | 105.1 | 104.1 | 102.7 | 99.9 | Long-term stability, 6 weeks, 4°C, without daylight Accuracy [%] (validation standard MOV): 105.7%; Long-term stability, 1 month, -20°C Accuracy [%] (validation standard ULOV): 98.5%; Long-term stability, 1 month, -80°C Accuracy [%] (validation standard ULOV): 93.5%; Long-term stability, 2 month, -20°C Accuracy [%] (validation standard ULOV): 99.2%; Long-term stability, 2 month, -80°C Accuracy [%] (validation standard ULOV): 101.3%; Long-term stability, 3 month, -20°C Accuracy [%] (validation standard ULOV): 99.2%; Long-term stability, 3 month, -80°C Accuracy [%] (validation standard ULOV): 99.2%; Long-term stability, 6 weeks, 4°C, without daylight Accuracy [%] (validation standard ULOV): 97.6%
Cc1ccc(NC(=O)c2ccc(CN3CCN(C)CC3)cc2)cc1Nc1nccc(-c2cccnc2)n1 [Imatinib] | 97.8 | 96.3 | 104.1 | 112.9 | 64.1 | 72.7 | 103.4 | 88.0 | 77.3 | 95.6 | 103.3 | 19.7 | 18.2 | 86.4 | 87.1 | 84.4 | 99.4 | 96.4 | 90.0 | 90.1 | Long-term stability, 6 weeks, 4°C, without daylight Accuracy [%] (validation standard MOV): 95.4%; Long-term stability, 1 month, -20°C Accuracy [%] (validation standard ULOV): 87.9%; Long-term stability, 1 month, -80°C Accuracy [%] (validation standard ULOV): 79.8%; Long-term stability, 2 month, -20°C Accuracy [%] (validation standard ULOV): 91.0%; Long-term stability, 2 month, -80°C Accuracy [%] (validation standard ULOV): 89.1%; Long-term stability, 3 month, -20°C Accuracy [%] (validation standard ULOV): 89.6%; Long-term stability, 3 month, -80°C Accuracy [%] (validation standard ULOV): 89.4%; Long-term stability, 6 weeks, 4°C, without daylight Accuracy [%] (validation standard ULOV): 89.8%
